# Measured values published in ChEMBL document CHEMBL2396607 (Bioorg Med Chem Lett, 2013).
# pIC50: −log10 of the molar value.
# Tests used:
# [1] = biological target: T1, Phosphatidylinositol 4,5-bisphosphate 3-kinase catalytic subunit delta isoform (Homo sapiens, UniProt O00329); assay: Inhibition of N-terminal myristoylated P110delta (unknown origin)-mediated AKT phosphorylation at Ser473 expressed in rat Rat1 cells by ELISA; assay type: cell-based
# T1 sequence (O00329 whole entry): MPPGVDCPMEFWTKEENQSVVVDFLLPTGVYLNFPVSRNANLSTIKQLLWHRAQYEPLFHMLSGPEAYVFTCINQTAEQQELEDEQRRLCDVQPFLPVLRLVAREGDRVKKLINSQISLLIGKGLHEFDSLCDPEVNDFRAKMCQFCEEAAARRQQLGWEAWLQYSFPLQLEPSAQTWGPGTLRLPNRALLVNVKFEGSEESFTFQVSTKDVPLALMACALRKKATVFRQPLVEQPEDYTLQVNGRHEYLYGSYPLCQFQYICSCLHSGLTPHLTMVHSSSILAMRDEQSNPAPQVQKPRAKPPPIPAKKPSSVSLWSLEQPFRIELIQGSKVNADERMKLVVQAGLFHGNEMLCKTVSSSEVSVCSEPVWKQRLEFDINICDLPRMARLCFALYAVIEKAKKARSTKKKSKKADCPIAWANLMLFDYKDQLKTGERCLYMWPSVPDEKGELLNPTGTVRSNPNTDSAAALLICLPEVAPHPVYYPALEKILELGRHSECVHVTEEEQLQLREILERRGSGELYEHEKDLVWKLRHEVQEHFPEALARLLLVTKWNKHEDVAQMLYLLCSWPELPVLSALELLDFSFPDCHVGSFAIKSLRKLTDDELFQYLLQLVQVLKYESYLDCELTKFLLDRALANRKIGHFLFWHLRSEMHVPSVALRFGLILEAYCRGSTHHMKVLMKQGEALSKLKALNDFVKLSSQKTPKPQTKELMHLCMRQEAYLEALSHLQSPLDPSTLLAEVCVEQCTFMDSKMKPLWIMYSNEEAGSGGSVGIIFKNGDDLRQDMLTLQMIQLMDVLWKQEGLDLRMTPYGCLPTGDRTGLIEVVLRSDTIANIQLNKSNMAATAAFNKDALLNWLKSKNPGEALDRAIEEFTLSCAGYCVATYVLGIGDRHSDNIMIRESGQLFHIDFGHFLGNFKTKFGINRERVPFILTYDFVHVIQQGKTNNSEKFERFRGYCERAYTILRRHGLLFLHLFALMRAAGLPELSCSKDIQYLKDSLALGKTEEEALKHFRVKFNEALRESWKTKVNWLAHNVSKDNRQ
# [2] = biological target: T2, Phosphatidylinositol 4,5-bisphosphate 3-kinase catalytic subunit beta isoform (Homo sapiens, UniProt P42338); assay: Inhibition of N-terminal myristoylated P110beta (unknown origin)-mediated AKT phosphorylation at Ser473 expressed in rat Rat1 cells by ELISA; assay type: cell-based
# [3] = biological target: T3, Phosphatidylinositol 4,5-bisphosphate 3-kinase catalytic subunit alpha isoform (Homo sapiens, UniProt P42336); assay: Inhibition of N-terminal myristoylated P110alpha (unknown origin)-mediated AKT phosphorylation at Ser473 expressed in rat Rat1 cells by ELISA; assay type: cell-based
# [4] = biological target: Cytochrome P450 3A4 (Homo sapiens, UniProt P08684); assay: Inhibition of CYP3A4 (unknown origin); assay type: ADME
# [5] = Clearance in rat liver microsomes; assay type: ADME, Microsome; conditions: read-out: CLH
# [6] = biological target: Phosphatidylinositol 4,5-bisphosphate 3-kinase catalytic subunit gamma isoform (Homo sapiens, UniProt P48736); assay: Inhibition of P110gamma (unknown origin) using PIP2:PS as substrate by TR-FRET assay
# [7] = biological target: T1, Phosphatidylinositol 4,5-bisphosphate 3-kinase catalytic subunit delta isoform; assay: Inhibition of P110delta (unknown origin) using PIP2:PS as substrate by TR-FRET assay
# [8] = biological target: T3, Phosphatidylinositol 4,5-bisphosphate 3-kinase catalytic subunit alpha isoform; assay: Inhibition of P110alpha (unknown origin) using L-a-phosphatidylinositol as substrate by luminescence assay
# [9] = Clearance in rat liver microsomes in presence of cofactor for glucuronyl transferases; assay type: ADME, Microsome; conditions: read-out: CLH
# [10] = biological target: T2, Phosphatidylinositol 4,5-bisphosphate 3-kinase catalytic subunit beta isoform; assay: Inhibition of P110beta (unknown origin) using L-a-phosphatidylinositol as substrate by luminescence assay
# [11] = Plasma protein binding in Sprague-Dawley rat at 1 mg/kg, iv; assay type: ADME, organism-based; design: dose 1 mg/kg, route intravenous; conditions: read-out: PPB (converted)
# [12] = Clearance in Sprague-Dawley rat at 1 mg/kg, iv; assay type: ADME, organism-based; design: dose 1 mg/kg, route intravenous; conditions: in vivo
# [13] = Volume of distribution at steady state in Sprague-Dawley rat at 1 mg/kg, iv; assay type: ADME, organism-based; design: dose 1 mg/kg, route intravenous; conditions: in vivo, read-out: Vdss
# [14] = Half life in Sprague-Dawley rat at 1 mg/kg, iv; assay type: ADME, organism-based; design: dose 1 mg/kg, route intravenous; conditions: in vivo
# [15] = biological target: Serine-protein kinase ATM (Homo sapiens, UniProt Q13315); assay: Inhibition of ATM (unknown origin) phosphorylation at Ser1981 by cell-based assay
# [16] = biological target: Serine/threonine-protein kinase ATR (Homo sapiens, UniProt Q13535); assay: Inhibition of ATR (unknown origin)
# [17] = biological target: DNA-dependent protein kinase catalytic subunit (Homo sapiens, UniProt P78527); assay: Inhibition of DNA-PK (unknown origin)
# [18] = biological target: Serine/threonine-protein kinase mTOR (Homo sapiens, UniProt P42345); assay: Inhibition of mTOR (unknown origin)
# [19] = biological target: Phosphatidylinositol 3-kinase catalytic subunit type 3 (Homo sapiens, UniProt Q8NEB9); assay: Inhibition of VPS34 (unknown origin)
# [20] = Clearance in dog at 0.1 mg/kg, iv and 0.6 mg/kg, po; assay type: ADME, organism-based, Canis lupus familiaris; conditions: in vivo
# [21] = Cmax in dog at 0.6 mg/kg, po; assay type: ADME, organism-based, Canis lupus familiaris; design: dose 0.6 mg/kg, route oral; conditions: in vivo
# [22] = Cmax in rat at 15 mg/kg, po; assay type: ADME, organism-based; design: dose 15 mg/kg, route oral; conditions: in vivo
# [23] = Oral bioavailability in dog at 0.6 mg/kg; assay type: ADME, organism-based, Canis lupus familiaris; conditions: in vivo
# [24] = Clearance in rat at 3.4 mg/kg, iv and 15 mg/kg, po; assay type: ADME, organism-based; conditions: in vivo
# [25] = Clearance in mouse at 1 mg/kg, iv and 3 mg/kg, po; assay type: ADME, organism-based; conditions: in vivo
# [26] = Cmax in mouse at 3 mg/kg, po; assay type: ADME, organism-based; design: dose 3 mg/kg, route oral; conditions: in vivo
# [27] = Oral bioavailability in mouse at 3 mg/kg; assay type: ADME, organism-based; conditions: in vivo
# Cytochrome P450 3A4, sequence (P08684 whole entry): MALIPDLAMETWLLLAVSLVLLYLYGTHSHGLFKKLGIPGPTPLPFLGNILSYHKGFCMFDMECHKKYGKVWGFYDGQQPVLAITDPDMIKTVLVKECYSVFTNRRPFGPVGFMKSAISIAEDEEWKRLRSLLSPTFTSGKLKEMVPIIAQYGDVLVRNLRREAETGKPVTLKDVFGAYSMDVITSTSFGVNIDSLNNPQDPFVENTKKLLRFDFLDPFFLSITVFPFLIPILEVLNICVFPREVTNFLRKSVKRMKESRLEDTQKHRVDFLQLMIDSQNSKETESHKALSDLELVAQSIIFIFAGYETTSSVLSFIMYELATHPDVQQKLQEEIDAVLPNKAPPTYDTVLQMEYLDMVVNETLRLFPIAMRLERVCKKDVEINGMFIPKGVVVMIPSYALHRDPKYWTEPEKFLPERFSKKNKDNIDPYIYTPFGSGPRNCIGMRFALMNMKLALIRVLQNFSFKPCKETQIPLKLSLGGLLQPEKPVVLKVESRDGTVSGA
# Phosphatidylinositol 4,5-bisphosphate 3-kinase catalytic subunit gamma isoform, sequence (P48736 whole entry, canonical isoform): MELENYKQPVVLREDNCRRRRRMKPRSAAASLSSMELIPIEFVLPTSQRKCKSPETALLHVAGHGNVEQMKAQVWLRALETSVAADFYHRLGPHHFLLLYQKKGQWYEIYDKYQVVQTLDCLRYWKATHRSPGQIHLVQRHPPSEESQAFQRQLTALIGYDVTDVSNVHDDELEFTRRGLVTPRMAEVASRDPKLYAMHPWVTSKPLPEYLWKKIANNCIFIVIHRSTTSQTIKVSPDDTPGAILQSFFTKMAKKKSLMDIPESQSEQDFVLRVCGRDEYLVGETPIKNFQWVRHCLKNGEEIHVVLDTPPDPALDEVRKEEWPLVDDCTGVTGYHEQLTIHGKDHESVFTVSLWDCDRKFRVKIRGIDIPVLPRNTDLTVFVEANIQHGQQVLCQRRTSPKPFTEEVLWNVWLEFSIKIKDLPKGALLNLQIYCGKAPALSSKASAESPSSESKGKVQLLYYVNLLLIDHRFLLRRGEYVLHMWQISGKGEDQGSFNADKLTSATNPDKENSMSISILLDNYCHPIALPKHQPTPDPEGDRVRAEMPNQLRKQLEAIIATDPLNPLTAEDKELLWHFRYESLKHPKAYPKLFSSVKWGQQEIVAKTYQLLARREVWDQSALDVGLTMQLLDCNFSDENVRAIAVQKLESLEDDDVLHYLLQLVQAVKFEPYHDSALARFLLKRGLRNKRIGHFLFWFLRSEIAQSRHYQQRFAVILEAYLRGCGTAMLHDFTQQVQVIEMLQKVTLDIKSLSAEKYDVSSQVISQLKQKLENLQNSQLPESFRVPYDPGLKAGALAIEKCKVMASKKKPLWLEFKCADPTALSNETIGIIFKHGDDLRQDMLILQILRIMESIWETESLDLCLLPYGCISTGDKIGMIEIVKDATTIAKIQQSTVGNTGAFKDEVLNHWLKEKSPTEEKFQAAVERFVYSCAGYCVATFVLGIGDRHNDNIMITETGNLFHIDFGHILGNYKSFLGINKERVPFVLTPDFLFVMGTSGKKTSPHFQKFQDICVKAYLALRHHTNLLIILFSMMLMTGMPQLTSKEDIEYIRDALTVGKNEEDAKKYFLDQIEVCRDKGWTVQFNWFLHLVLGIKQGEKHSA
# T3 sequence (P42336 whole entry, canonical isoform): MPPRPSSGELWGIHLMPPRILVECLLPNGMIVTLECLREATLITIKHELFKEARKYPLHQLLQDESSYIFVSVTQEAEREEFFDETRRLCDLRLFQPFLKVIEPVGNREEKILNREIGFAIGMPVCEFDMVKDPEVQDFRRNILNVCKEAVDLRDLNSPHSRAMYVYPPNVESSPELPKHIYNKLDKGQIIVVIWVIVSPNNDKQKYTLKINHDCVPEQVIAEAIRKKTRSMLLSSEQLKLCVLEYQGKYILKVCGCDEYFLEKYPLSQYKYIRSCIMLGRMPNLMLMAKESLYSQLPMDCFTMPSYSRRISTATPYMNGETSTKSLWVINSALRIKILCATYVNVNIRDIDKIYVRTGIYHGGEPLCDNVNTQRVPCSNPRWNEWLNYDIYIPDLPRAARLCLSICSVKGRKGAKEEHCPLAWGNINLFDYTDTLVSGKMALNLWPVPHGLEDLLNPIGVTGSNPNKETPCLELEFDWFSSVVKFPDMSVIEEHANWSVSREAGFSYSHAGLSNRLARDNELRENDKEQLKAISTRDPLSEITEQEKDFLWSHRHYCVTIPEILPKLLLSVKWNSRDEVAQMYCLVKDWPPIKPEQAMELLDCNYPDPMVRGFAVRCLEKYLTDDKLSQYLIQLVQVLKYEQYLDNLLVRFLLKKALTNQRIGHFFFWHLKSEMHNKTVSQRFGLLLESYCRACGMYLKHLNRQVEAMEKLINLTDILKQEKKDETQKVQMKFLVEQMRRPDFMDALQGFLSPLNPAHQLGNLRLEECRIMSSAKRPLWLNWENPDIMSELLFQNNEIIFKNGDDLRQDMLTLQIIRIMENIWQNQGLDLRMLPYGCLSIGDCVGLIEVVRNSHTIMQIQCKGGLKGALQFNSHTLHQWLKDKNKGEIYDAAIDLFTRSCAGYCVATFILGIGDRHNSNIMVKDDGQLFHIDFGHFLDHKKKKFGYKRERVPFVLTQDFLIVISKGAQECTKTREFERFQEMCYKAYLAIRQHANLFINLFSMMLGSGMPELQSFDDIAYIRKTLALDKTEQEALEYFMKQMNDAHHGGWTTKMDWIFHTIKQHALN
# T2 sequence (P42338 whole entry, canonical isoform): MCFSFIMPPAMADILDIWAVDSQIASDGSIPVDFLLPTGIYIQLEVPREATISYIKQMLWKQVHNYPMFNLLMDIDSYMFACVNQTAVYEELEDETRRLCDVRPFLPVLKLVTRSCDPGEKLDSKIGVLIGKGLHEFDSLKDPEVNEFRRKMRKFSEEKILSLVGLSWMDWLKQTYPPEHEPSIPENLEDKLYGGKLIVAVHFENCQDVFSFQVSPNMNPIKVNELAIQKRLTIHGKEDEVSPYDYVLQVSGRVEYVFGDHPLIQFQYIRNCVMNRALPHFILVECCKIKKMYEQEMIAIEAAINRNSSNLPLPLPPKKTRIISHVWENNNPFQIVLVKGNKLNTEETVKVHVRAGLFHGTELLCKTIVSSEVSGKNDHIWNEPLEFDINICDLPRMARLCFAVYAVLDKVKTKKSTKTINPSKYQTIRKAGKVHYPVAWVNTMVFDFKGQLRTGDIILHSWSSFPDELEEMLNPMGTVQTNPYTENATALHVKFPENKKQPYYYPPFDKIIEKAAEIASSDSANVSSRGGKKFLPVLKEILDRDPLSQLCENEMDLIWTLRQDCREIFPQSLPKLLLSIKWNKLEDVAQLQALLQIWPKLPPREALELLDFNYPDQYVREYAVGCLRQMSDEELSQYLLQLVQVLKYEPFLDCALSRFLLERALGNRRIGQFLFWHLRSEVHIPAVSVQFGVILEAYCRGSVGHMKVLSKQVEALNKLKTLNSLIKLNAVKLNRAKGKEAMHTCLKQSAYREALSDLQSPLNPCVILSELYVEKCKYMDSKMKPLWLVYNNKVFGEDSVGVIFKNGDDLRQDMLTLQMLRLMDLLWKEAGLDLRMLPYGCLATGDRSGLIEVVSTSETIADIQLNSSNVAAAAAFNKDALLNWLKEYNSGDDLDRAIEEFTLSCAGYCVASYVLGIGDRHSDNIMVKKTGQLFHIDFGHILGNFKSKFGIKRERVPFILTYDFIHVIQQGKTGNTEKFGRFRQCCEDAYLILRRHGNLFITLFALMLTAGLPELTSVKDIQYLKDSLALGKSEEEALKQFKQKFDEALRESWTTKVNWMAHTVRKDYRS
# Phosphatidylinositol 3-kinase catalytic subunit type 3, sequence (Q8NEB9 whole entry): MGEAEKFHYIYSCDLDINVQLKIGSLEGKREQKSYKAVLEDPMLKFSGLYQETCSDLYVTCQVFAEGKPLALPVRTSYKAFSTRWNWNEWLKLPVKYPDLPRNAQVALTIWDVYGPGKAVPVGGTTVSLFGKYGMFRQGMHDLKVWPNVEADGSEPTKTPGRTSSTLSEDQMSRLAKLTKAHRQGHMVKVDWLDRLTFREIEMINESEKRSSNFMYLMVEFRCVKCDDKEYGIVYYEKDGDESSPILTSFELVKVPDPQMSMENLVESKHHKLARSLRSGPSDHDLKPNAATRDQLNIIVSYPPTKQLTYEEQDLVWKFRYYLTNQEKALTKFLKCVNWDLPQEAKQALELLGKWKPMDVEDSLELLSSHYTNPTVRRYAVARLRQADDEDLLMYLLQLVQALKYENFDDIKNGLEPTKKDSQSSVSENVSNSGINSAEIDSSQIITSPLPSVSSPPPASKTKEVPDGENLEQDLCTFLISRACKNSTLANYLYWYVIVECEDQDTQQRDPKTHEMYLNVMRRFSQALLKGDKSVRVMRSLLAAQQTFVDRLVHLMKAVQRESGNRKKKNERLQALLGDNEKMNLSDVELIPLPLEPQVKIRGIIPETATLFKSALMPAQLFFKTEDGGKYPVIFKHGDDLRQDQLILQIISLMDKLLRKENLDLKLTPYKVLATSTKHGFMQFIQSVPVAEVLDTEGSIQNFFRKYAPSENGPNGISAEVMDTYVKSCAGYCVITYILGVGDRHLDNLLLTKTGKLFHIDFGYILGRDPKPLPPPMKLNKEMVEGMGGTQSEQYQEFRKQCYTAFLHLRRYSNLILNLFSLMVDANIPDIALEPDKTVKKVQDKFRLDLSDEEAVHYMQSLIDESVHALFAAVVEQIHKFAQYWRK
pIC50 [1],pIC50 [2],pIC50 [3],pIC50 [4],microsomal CLint [5] [µL/min/mg],pIC50 [6],pIC50 [7],pIC50 [8],microsomal CLint [9] [µL/min/mg],pIC50 [10],SMILES,also measured
5.54,5.62,6.85,< 5.00,27,6.08,5.96,8.02,,,CC(C)(c1cc(-c2cnc(NC(=O)N3CCC[C@H]3C(N)=O)s2)ccn1)C(F)(F)F,
5.24,< 5.00,< 5.00,,,5.34,5.38,5.57,104,< 5.04,CNC(=O)[C@@H]1CCCN1C(=O)Nc1nc(C)c(-c2ccnc(C(C)(C)C)c2)s1,
5.80,5.19,6.64,,44,6.49,6.54,7.72,,5.92,Cc1nc(NC(=O)N2CC[C@H]2C(N)=O)sc1-c1ccnc(C(C)(C)C)n1,
5.60,5.36,6.77,,96,6.39,6.47,,,,CCN(CC)c1nccc(-c2sc(NC(=O)N3CCC[C@H]3C(N)=O)nc2C)n1,
5.52,5.02,,< 5.00,47,6.16,6.09,,,5.51,Cc1nc(NC(=O)N2CCC[C@H]2C(N)=O)sc1-c1ccnc(C2(C)CC2)n1,fraction unbound [11]: 0.029; clearance [12]: 8 mL/min/kg; Vd [13]: 0.9 L/kg; half-life [14]: 1.7 h
6.11,< 5.00,5.60,,,6.03,6.23,6.21,186,5.31,Cc1nc(NC(=O)N2CCCC2)sc1-c1ccnc(C(C)(C)C)c1,
< 5.00,5.14,6.36,< 5.00,53,6.21,6.16,7.70,,5.74,Cc1nc(NC(=O)N2CCC[C@H]2C(N)=O)sc1-c1ccnc(C2CCC2)n1,
< 5.00,< 5.00,5.34,,,,,6.49,,< 5.04,Cc1nc(NC(=O)N2CCC[C@H]2C(N)=O)sc1-c1cc(C(C)C)ncn1,
5.89,5.23,7.00,< 5.00,36,5.85,6.02,7.80,,5.40,Cc1nc(NC(=O)N2CCC[C@H]2C(N)=O)sc1-c1ccnc(C(C)C)n1,
< 5.00,< 5.00,6.19,< 5.00,41,5.96,5.70,,,,Cc1nc(NC(=O)N2CCC[C@H]2C(N)=O)sc1-c1ccnc(C2(C#N)CC2)c1,
,,,< 5.00,,,,,62,,Cc1nc(NC(=O)N2CCC[C@H]2C(N)=O)sc1-c1ccnc(C(C)(C)C)n1,fraction unbound [11]: 0.06; clearance [12]: 21 mL/min/kg; Vd [13]: 1.2 L/kg; half-life [14]: 1.2 h
,,,,,,,,,,Cc1nc(NC(=O)N2CCC[C@H]2C(N)=O)sc1-c1ccnc(C(C)(C)C(F)(F)F)c1 [ALPELISIB],pIC50 [15]: < 5.00; pIC50 [16]: < 5.04; pIC50 [17]: < 5.04; pIC50 [18]: < 5.04; pIC50 [19]: < 5.04; clearance [20]: 8 mL/min/kg; Cmax [21]: 1070 nM; Cmax [22]: 190 nM; bioavailability [23]: 140%; clearance [24]: 10 mL/min/kg; clearance [25]: 8 mL/min/kg; Cmax [26]: 520 nM; bioavailability [27]: 106%; fraction unbound [11]: 0.057; clearance [12]: 10 mL/min/kg; Vd [13]: 1.9 L/kg; half-life [14]: 2.9 h
6.21,5.68,6.89,,,,,,,,Cc1nc(NC(=O)N2CCC[C@H]2C(N)=O)sc1-c1ccc(-n2cccn2)cc1,
5.31,< 5.00,6.47,,17,5.85,6.37,,,,CC(C)(c1cc(-c2sc(NC(=O)N3CCC[C@H]3C(N)=O)nc2Cl)ccn1)C(F)(F)F,

SMILES,pIC50 [1],pIC50 [2],pIC50 [3],pIC50 [4],microsomal CLint [5] [µL/min/mg],pIC50 [6],pIC50 [7],pIC50 [8],microsomal CLint [9] [µL/min/mg],pIC50 [10],also measured
Cc1nc(NC(=O)N2CCC[C@H]2C(N)=O)sc1-c1ccnc(C(C)(C)C)c1,6.14,5.10,,< 5.00,,6.37,6.48,,77,,clearance [12]: 39 mL/min/kg; Vd [13]: 1.4 L/kg; half-life [14]: 3.4 h
Cc1nc(NC(=O)N2CCC[C@@H]2C(N)=O)sc1-c1ccnc(C(C)(C)C)c1,,,,,,< 5.00,5.48,,36,5.09,
